The text below walks through data of patent US7312224B2, “Pyrimidine derivatives” (Merck Patent GmbH, priority 2001, dated 2007).

SMILES strings stand for the structures. Structures can show the parent of a compound that is named as a salt.

Tested on in one data set: not given
Assay: not given
Conditions: not given
As for `O=C(O)c1ccc(-c2nc(NCc3ccc4c(c3)OCO4)c3c4c(oc3n2)CCCC4)cc1` (as salt: salt) [Example 2, 4-[4-(3,4-methylenedioxybenzylamino)-5,6,7,8-tetrahydrobenzo[4,5]furo[2,3-d]pyrimidin-2-yl]benzoic acid], the melting point (as a rule, the temperature, or range, at which the solid turns liquid) is 205 °C.
On the same count and under the same terms, then `COc1ccc(CNc2nc(CCCC(=O)O)nc3oc4c(c23)CCCC4)cc1Cl` (as salt: salt) [Example 3, 4-[4-(3-chloro-4-methoxybenzylamino)-5,6,7,8-tetrahydrobenzo[4,5]furo[2,3-d]pyrimidin-2-yl]butyric acid], with 205 °C; and `COc1ccc(CNc2nc(-c3ccc(C(=O)O)cc3)nc3c2c2ccccc2n3C)cc1Cl` (as salt: sodium) [Example 8, 4-[4-(3-chloro-4-methoxybenzylamino)-9-methyl-9H-1,3,9-triazafluoren-2-yl]benzoic acid], with over 250 °C; and `COc1ccc(CNc2nc(-c3ccc(C(=O)O)cc3)nc3c2c2c(n3C(C)c3ccccc3)CCCC2)cc1Cl` (stereo not shown) (as salt: potassium) [Example 1, 4-[4-(3-chloro-4-methoxybenzylamino)-9-(1-phenylethyl)-6,7,8,9-tetrahydro-5H-1,3,9-triazafluoren-2-yl]benzoic acid], with 179 °C.
Take `COc1ccc(CNc2nc(CN3CCC(C(=O)O)CC3)nc3oc4c(c23)CCCC4)cc1Cl` [Example 4, 1-[4-(3-chloro-4-methoxybenzylamino)-5,6,7,8-tetrahydrobenzo[4,5]furo[2,3-d]pyrimidin-2-ylmethyl]piperidine-4-carboxylic acid]: the melting point lay within 233 to 235 °C.
`CCn1c2ccccc2c2c(NCc3ccc4c(c3)OCO4)nc(-c3ccc(C(=O)O)cc3)nc21` (as salt: sodium) [Example 7, 4-[4-(3,4-methylenedioxybenzylamino)-9-ethyl-9H-1,3,9-triazafluoren-2-yl]benzoic acid] showed a melting point of over 250 °C.

The next data set has as its target cGMP phosphodiesterase (PDE V) (Homo sapiens, UniProt O76074). The data set can be described thus: Affinity to PDE V (IC50, inhibition of enzyme activity). To be noted: concentration of the inhibitor needed to achieve 50% inhibition of the enzyme activity. It is filed as biochemical. On the procedure: The biological activity of the compounds of the formula I can be determined by methods as described, for example, in WO 93/06104.
The affinity of the compounds according to the invention for cGMP and cAMP phosphodiesterase is determined by measuring their IC50 values (concentration of the inhibitor needed to achieve 50% inhibition of the enzyme activity).
The determinations can be carried out using enzymes isolated by known methods (for example W. J. Thompson et al., Biochem. 1971, 10, 311). The experiments can be carried out using a modified batch method of W. J. Thompson and M. M. Appleman (Biochem. 1979, 18 5228).
Consider `COc1ccc(CNc2nc(-c3ccc(C(=O)O)cc3)nc3c2c2c(n3C(C)c3ccccc3)CCCC2)cc1Cl` (stereo not shown) [Example 1, 4-[4-(3-chloro-4-methoxybenzylamino)-9-(1-phenylethyl)-6,7,8,9-tetrahydro-5H-1,3,9-triazafluoren-2-yl]benzoic acid], for which the 50% inhibitory concentration (IC50) (commonly the concentration that gives 50% inhibition) was 300 nM.
